From US8624040B2, “Substituted hydroxamic acids and uses thereof” (Millennium Pharmaceuticals, Inc., priority 2009, dated 2014)

Biological target: T1, purified human HDAC6 (Homo sapiens, UniProt Q9UBN7)
T1 construct: purchased BPS Bioscience 5006
T1 sequence (Q9UBN7 1-1215): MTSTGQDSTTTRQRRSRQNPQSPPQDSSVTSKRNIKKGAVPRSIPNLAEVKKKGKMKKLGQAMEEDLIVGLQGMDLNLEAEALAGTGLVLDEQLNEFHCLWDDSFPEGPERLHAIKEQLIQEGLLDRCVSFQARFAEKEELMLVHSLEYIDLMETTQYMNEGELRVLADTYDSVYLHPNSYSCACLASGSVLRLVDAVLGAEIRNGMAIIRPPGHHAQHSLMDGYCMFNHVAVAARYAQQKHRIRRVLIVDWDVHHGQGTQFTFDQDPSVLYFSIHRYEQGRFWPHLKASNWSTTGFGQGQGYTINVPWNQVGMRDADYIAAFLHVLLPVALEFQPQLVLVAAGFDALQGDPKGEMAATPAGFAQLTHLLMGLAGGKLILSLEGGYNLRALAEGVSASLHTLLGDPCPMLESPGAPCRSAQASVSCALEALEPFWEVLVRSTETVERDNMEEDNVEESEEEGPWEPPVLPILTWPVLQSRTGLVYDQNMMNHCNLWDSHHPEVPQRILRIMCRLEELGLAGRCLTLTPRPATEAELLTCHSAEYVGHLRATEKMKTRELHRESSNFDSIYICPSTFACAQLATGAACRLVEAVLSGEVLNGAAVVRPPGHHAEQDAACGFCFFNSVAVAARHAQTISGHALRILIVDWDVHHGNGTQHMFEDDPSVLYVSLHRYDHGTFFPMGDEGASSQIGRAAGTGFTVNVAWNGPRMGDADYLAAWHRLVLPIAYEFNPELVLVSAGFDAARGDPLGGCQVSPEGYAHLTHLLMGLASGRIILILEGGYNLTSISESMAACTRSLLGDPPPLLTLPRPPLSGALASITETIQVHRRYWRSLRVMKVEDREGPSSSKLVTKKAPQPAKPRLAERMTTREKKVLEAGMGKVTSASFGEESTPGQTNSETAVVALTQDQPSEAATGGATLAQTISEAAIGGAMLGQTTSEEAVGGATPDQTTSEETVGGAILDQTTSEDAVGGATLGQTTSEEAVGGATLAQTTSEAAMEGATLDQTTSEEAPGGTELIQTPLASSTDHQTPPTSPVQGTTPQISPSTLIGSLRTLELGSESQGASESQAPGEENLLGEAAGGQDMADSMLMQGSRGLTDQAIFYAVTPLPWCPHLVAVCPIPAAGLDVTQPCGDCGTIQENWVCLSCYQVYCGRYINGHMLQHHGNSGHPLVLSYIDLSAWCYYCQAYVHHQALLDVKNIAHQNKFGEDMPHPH
Assay: HDAC6 Enzyme Assay
Format: biochemical
Conditions: enzyme inhibition, substrate Ac-Arg-Gly-Lys(Ac)-AMC, 1 hour at 30° C.
Experimental: To measure the inhibition of HDAC6 activity, purified human HDAC6 (BPS Bioscience; Cat. No. 5006) is incubated with substrate Ac-Arg-Gly-Lys(Ac)-AMC peptide (Bachem Biosciences; Cat. No. I-1925) for 1 hour at 30° C. in the presence of test compounds or vehicle DMSO control. The reaction is stopped with the HDAC inhibitor trichostatin A (Sigma; Cat. No. T8552) and the amount of Arg-Gly-Lys-AMC generated is quantitated by digestion with trypsin (Sigma; Cat. No. T1426) and subsequent measurement of the amount of AMC released using a fluorescent plate reader (Pherastar; BMG Technologies) set at Ex 340 nm and Em 460 nm. Concentration response curves are generated by calculating the fluorescence increase in test compound-treated samples relative to DMSO-treated controls, and enzyme inhibition (IC50) values are determined from those curves.

Row | SMILES | IC50 [nM]
1 | Cc1onc(-c2ccccc2)c1C(=O)N1CCc2cc(C(=O)NO)sc2C1 [Compound 107, N-hydroxy-6-[(5-methyl-3-phenylisoxazol-4-yl)carbonyl]-4,5,6,7-tetrahydrothieno[2,3-c]pyridine-2-carboxamide] | < 50
2 | COc1ccc(CN2CCc3cc(C(=O)NO)sc3C2)cc1 [Compound 111, N-hydroxy-6-(4-methoxybenzyl)-4,5,6,7-tetrahydrothieno[2,3-c]pyridine-2-carboxamide] | > 1000
3 | Cn1cccc1C(=O)N1CCc2cc(C(=O)NO)sc2C1 [Compound 116, N-hydroxy-6-[(1-methyl-1H-pyrrol-2-yl)carbonyl]-4,5,6,7-tetrahydrothieno[2,3-c]pyridine-2-carboxamide] | < 50
4 | Cc1cc(C)n(CC(=O)N2CCc3cc(C(=O)NO)sc3C2)n1 [Compound 125, 6-(2-(3,5-dimethyl-1H-pyrazol-1-yl)acetyl)-N-hydroxy-4,5,6,7-tetrahydrothieno[2,3-c]pyridine-2-carboxamide] | 50 to 100
5 | O=C(NO)c1cc2c(s1)CN(C(=O)c1cnn(-c3ccccc3)c1)CC2 [Compound 127, N-hydroxy-6-[(1-phenyl-1H-pyrazol-4-yl)carbonyl]-4,5,6,7-tetrahydrothieno[2,3-c]pyridine-2-carboxamide] | < 50
6 | CC(=O)Nc1cc(NC(C)=O)cc(C(=O)N2CCc3cc(C(=O)NO)sc3C2)c1 [Compound 131, 6-[3,5-bis(acetylamino)benzoyl]-N-hydroxy-4,5,6,7-tetrahydrothieno[2,3-c]pyridine-2-carboxamide] | < 50
7 | Cc1onc(-c2ccccc2)c1NC(=O)N1CCc2cc(C(=O)NO)sc2C1 [Compound 132, N^2-hydroxy-N^6-(5-methyl-3-phenylisoxazol-4-yl)-4,7-dihydrothieno[2,3-c]pyridine-2,6(5H)-dicarboxamide] | < 50
8 | O=C(NO)c1cc2c(s1)CN(C(=O)c1cccc(-n3cccn3)c1)CC2 [Compound 133, 6-(3-(1H-pyrazol-1-yl)benzoyl)-N-hydroxy-4,5,6,7-tetrahydrothieno[2,3-c]pyridine-2-carboxamide] | < 50
9 | CC(C)c1ccc(NC(=O)N2CCc3cc(C(=O)NO)sc3C2)cc1 [Compound 139, N^2-hydroxy-N^6-(4-isopropylphenyl)-4,7-dihydrothieno[2,3-c]pyridine-2,6(5H)-dicarboxamide] | < 50
10 | O=C(NO)c1cc2c(s1)CN(C(=O)c1cc(F)cc(F)c1)CC2 [Compound 140, 6-(3,5-difluorobenzoyl)-N-hydroxy-4,5,6,7-tetrahydrothieno[2,3-c]pyridine-2-carboxamide] | < 50
11 | O=C(NO)c1cc2c(s1)CN(C(=O)c1cscn1)CC2 [Compound 146, N-hydroxy-6-(1,3-thiazol-4-ylcarbonyl)-4,5,6,7-tetrahydrothieno[2,3-c]pyridine-2-carboxamide] | < 50
12 | CCn1nc(C)cc1C(=O)N1CCc2cc(C(=O)NO)sc2C1 [Compound 149, 6-[(1-ethyl-3-methyl-1H-pyrazol-5-yl)carbonyl]-N-hydroxy-4,5,6,7-tetrahydrothieno[2,3-c]pyridine-2-carboxamide] | 50 to 100
13 | Cc1nc(-c2ccccc2)ncc1C(=O)N1CCc2cc(C(=O)NO)sc2C1 [Compound 152, N-hydroxy-6-[(4-methyl-2-phenylpyrimidin-5-yl)carbonyl]-4,5,6,7-tetrahydrothieno[2,3-c]pyridine-2-carboxamide] | < 50
14 | O=C(NO)c1cc2c(s1)CN(C(=O)c1c(F)c(F)cc(F)c1F)CC2 [Compound 156, N-hydroxy-6-(2,3,5,6-tetrafluorobenzoyl)-4,5,6,7-tetrahydrothieno[2,3-c]pyridine-2-carboxamide] | < 50
15 | Nc1[nH]ncc1C(=O)N1CCc2cc(C(=O)NO)sc2C1 [Compound 159, 6-[(5-amino-1H-pyrazol-4-yl)carbonyl]-N-hydroxy-4,5,6,7-tetrahydrothieno[2,3-c]pyridine-2-carboxamide] | < 50
16 | O=C(NO)c1cc2c(s1)CN(C(=O)Nc1ccc(I)cc1)CC2 [Compound 163, N^2-hydroxy-N^6-(4-iodophenyl)-4,7-dihydrothieno[2,3-c]pyridine-2,6(5H)-dicarboxamide] | < 50
17 | CCCCc1ccc(NC(=O)N2CCc3cc(C(=O)NO)sc3C2)cc1 [Compound 169, N^6-(4-butylphenyl)-N^2-hydroxy-4,7-dihydrothieno[2,3-c]pyridine-2,6(5H)-dicarboxamide] | < 50
18 | O=C(NO)c1cc2c(s1)CN(C(=O)c1ccc(C(F)(F)F)cc1)CC2 [Compound 171, N-hydroxy-6-(4-(trifluoromethyl)benzoyl)-4,5,6,7-tetrahydrothieno[2,3-c]pyridine-2-carboxamide] | < 50
19 | Cc1cc(C)c(NC(=O)N2CCc3cc(C(=O)NO)sc3C2)c(C)c1 [Compound 176, N^2-hydroxy-N^6-mesityl-4,7-dihydrothieno[2,3-c]pyridine-2,6(5H)-dicarboxamide] | < 50
20 | Cc1noc(C)c1C(=O)N1CCc2cc(C(=O)NO)sc2C1 [Compound 177, 6-[(3,5-dimethylisoxazol-4-yl)carbonyl]-N-hydroxy-4,5,6,7-tetrahydrothieno[2,3-c]pyridine-2-carboxamide] | < 50
21 | Cc1cc(C(=O)N2CCc3cc(C(=O)NO)sc3C2)c(C)o1 [Compound 178, 6-(2,5-dimethyl-3-furoyl)-N-hydroxy-4,5,6,7-tetrahydrothieno[2,3-c]pyridine-2-carboxamide] | 50 to 100
22 | O=C(NO)c1cc2c(s1)CN(C(=O)c1ccc3ccccc3n1)CC2 [Compound 179, N-hydroxy-6-(quinolin-2-ylcarbonyl)-4,5,6,7-tetrahydrothieno[2,3-c]pyridine-2-carboxamide] | < 50
23 | O=C(NO)c1cc2c(s1)CN(C(=O)c1ccc(F)cc1)CC2 [Compound 182, 6-(4-fluorobenzoyl)-N-hydroxy-4,5,6,7-tetrahydrothieno[2,3-c]pyridine-2-carboxamide] | 50 to 100
24 | Cc1onc(-c2ccc(F)cc2)c1C(=O)N1CCc2cc(C(=O)NO)sc2C1 [Compound 184, 6-{[3-(4-fluorophenyl)-5-methylisoxazol-4-yl]carbonyl}-N-hydroxy-4,5,6,7-tetrahydrothieno[2,3-c]pyridine-2-carboxamide] | < 50
25 | CCc1cc(C(=O)N2CCc3cc(C(=O)NO)sc3C2)n(C)n1 [Compound 186, 6-[(3-ethyl-1-methyl-1H-pyrazol-5-yl)carbonyl]-N-hydroxy-4,5,6,7-tetrahydrothieno[2,3-c]pyridine-2-carboxamide] | < 50
26 | Cc1c(C(=O)N2CCc3cc(C(=O)NO)sc3C2)cnn1-c1ccccc1 [Compound 187, N-hydroxy-6-[(5-methyl-1-phenyl-1H-pyrazol-4-yl)carbonyl]-4,5,6,7-tetrahydrothieno[2,3-c]pyridine-2-carboxamide] | < 50
27 | CC(C)(C)c1ccc(CC(=O)N2CCc3cc(C(=O)NO)sc3C2)cc1 [Compound 188, 6-[(4-tert-butylphenyl)acetyl]-N-hydroxy-4,5,6,7-tetrahydrothieno[2,3-c]pyridine-2-carboxamide] | < 50
28 | CC(C)(C)c1ccc(C(=O)N2Cc3cc(C(=O)NO)sc3C(C)(C)C2)cc1 [Compound 190, 5-(4-tert-butylbenzoyl)-N-hydroxy-7,7-dimethyl-4,5,6,7-tetrahydrothieno[3,2-c]pyridine-2-carboxamide] | > 1000
